In patent publication US5705185A, “Transdermal delivery of estradiol and process for manufacturing said device” (priority 1996, dated 1998):

What was measured:
[1] = in vitro permeation through mouse skin in diffusion chamber; type: in vitro ADME, Swiss mice; conditions: n = 4
Description: […]. The techniques of this permeation studies is described afterwards.
Furthermore, "in vitro" permeation experiments with abdominal mouse skin and human skin were made using the diffusion chamber that is schematically shown in longitudinal section in FIG. 1.
The diffusion chamber illustrated in FIG. 1 comprises a body having front and rear tubular sections 1 and 2 having respective annular end flanges 3 and 4 by which the sections 1 and 2 are joined together. A sample of skin 5, with attached estradiol delivery device D to be tested facing the rear tubular section 2, is clamped between the flanges 3 and 4 by means of a pinch clamp 6.
The tubular section 1 has an internal chamber 7 with an opening 8 furnished with a glass stopper 9. The tubular section 1 has also a jacket 10 through which warm water can be circulated to maintain the contents of the chamber 7 at the desired temperature. The chamber 7 contains a magnetic bar stirrer 11 which is rotatable by means of a magnetic field applied externally means (not shown) to enable the contents of the chamber 7 to be stirred.
The tubular section 2 has a chamber 12 with an opening 13 furnished with a glass stopper 14.
In the assay, the skin of Swiss mice, shaved 72 hours before the experiments, was employed. Also used was human skin obtained from human skin samples (remnants of plastic surgery) which have been eliminated the adipose tissue by scissors, and then was cut to 500 microns by a dermatome.
[…]. Each experiment was started by loading chamber 7 with 5.5 ml of a receptor solution of sodium lauryl sulfate (0.5%), starting the stirrer 11 and taking samples at pre determined periods of time and the subsequent determination of permeated estradiol (by HPLC).

[2] = test system: enzymatic degradation from estradiol to estrone in human skin; assay: inhibition of the estradiol metabolism in human skin; conditions: for % Estradiol Metabolized (E1 *100/E1 + E2): 10% PPG; for Inhibition %: 10% PPG versus control; for Estradiol / Estrone: saturated estradiol in saline + 10% PPG, human skin without stratum corneum, n=3; for % estrone formed (percent of estradiol conversion to estrone): n = 4
[3] = saturation of estradiol in the coating layer; conditions: bad appearance, diminished adhesive properties
[4] = test system: 17-β-hydroxysteroid dehydrogenase; assay: purified 17-β-hydroxysteroid dehydrogenase assay, absorbance at 340nm (NADH); type: biochemical; conditions: propylene glycol 10% in volume
Procedure: Another experimentation in this field was carried out using purified 17-β-hydroxysteroid dehydrogenase, 17-β-estradiol as a substrate and NAD^+ as a cofactor in the control tubes, in sample tubes 10% in volume of propyleneglycol was added. The continuous monitoring of the increase in the absorbance at 340nm generated by the appearance of NADH was the method used. […] Therefore the inhibition of the conversion is no mediated by a denaturalization process of the enzyme, therefore we postulated that the process of inhibition was governed by competition for NAD^+.

C[C@]12CC[C@@H]3c4ccc(O)cc4CC[C@H]3[C@@H]1CC[C@@H]2O [Estradiol, estradiol]
Flux through mouse skin at 24h ([1]; estradiol concentration 1 wt % in coating layer): 1.8 ± 0.29 μg/cm^2 *h | Flux through mouse skin at 24h ([1]; estradiol concentration 1.5 wt % in coating layer): 2.2 ± 0.25 μg/cm^2 *h | Flux through mouse skin at 24h ([1]; estradiol concentration 1.75 wt % in coating layer): 2.8 ± 0.33 μg/cm^2 *h | Flux through mouse skin at 24h ([1]; estradiol concentration 1.8 wt % in coating layer): 3.28 ± 0.41 μg/cm^2 *h | Flux through mouse skin at 24h ([1]; estradiol concentration 2 wt % in coating layer): 3.31 ± 0.45 μg/cm^2 *h | Flux through mouse skin at 24h ([1]; estradiol concentration 2.5 wt % in coating layer): 3.39 ± 0.37 μg/cm^2 *h | transformation of estradiol in contact with the enzymes of the skin ([2]; permeation through skin): enzymatically oxidazed to estrone | concentration above which estradiol precipitates in the polymeric matrix [3]: above 2.1 wt %

CC(O)CO (centres unmarked) [Propylene glycol, propylene glycol]
% Estradiol Metabolized (E1 *100/E1 + E2) ([2]; Exp. 1): 7.4% | Inhibition % ([2]; Exp. 1): 66.0% | Estradiol ([2]; Exp. 1): 3.51 nmol/mL | Estrone ([2]; Exp. 1): 0.27 nmol/mL | % Estradiol Metabolized (E1 *100/E1 + E2) ([2]; Exp. 2): 6.55% | Inhibition % ([2]; Exp. 2): 57.2% | Estradiol ([2]; Exp. 2): 2.71 nmol/mL | Estrone ([2]; Exp. 2): 0.19 nmol/mL | propyleneglycol concentration at which enzymatic conversion of estradiol to estrone is minimized ([2]; FIG. 4C): 10 % wt | % estrone formed (percent of estradiol conversion to estrone) ([2]; PG 0.25%): 37.9% | % estrone formed (percent of estradiol conversion to estrone) ([2]; PG 0.5%): 33.6% | % estrone formed (percent of estradiol conversion to estrone) ([2]; PG 1.5%): 26.8% | % estrone formed (percent of estradiol conversion to estrone) ([2]; PG 3%): 20.6% | % estrone formed (percent of estradiol conversion to estrone) ([2]; PG 5%): 16.1% | % estrone formed (percent of estradiol conversion to estrone) ([2]; PG 10%): 9.2% | inhibition of enzymatic degradation of estradiol to estrone ([2]; tests conducted by the applicant): inhibits the enzymatic mechanism that causes degradation of estradiol to estrone | increase in the absorbance at 340nm (NADH) ([4]; 0 min): 0 | effect on purified enzyme activity versus control ([4]; 17-β-estradiol substrate, NAD+ cofactor): No differences | increase in the absorbance at 340nm (NADH) ([4]; 1 min): 15 | increase in the absorbance at 340nm (NADH) ([4]; 2 min): 30 | increase in the absorbance at 340nm (NADH) ([4]; 3 min): 47 | increase in the absorbance at 340nm (NADH) ([4]; 4 min): 60 | increase in the absorbance at 340nm (NADH) ([4]; 5 min): 72 | increase in the absorbance at 340nm (NADH) ([4]; 6 min): 95 | increase in the absorbance at 340nm (NADH) ([4]; 7 min): 105 | increase in the absorbance at 340nm (NADH) ([4]; 8 min): 113 | increase in the absorbance at 340nm (NADH) ([4]; 9 min): 120 | increase in the absorbance at 340nm (NADH) ([4]; 10 min): 125 | increase in the absorbance at 340nm (NADH) ([4]; 11 min): 128 | increase in the absorbance at 340nm (NADH) ([4]; 12 min): 130
